The source of these data is patent US8324406B2, “Antitumoral dihydropyran-2-one compounds” (priority 2006, dated 2012).

In brackets after ≈: the same amount, converted by molar mass. Some results are limits rather than exact numbers.

A word on the IC50: it is the concentration that gives 50% inhibition. A word on the GI50: it is the concentration that inhibits growth by half. By MIC is commonly meant the lowest concentration found to suppress growth.

Assay [1] has as its system breast cancer carcinoma. Conditions: cited from earlier work.
For assay [2], the system named is A549. Briefly: cells. Format: cell-based. Conditions: Homo sapiens, A549, 48 h; for CC50: read-out: LC50; for IC (TGI): read-out: TGI. The text has this: (§1) The aim of this assay is to evaluate the in vitro cytostatic (ability to delay or arrest tumor cell growth) or cytotoxic (ability to kill tumor cells) activity of the samples being tested.
(§2) Evaluation of Cytotoxic Activity Using the SBR Colorimetric Assay
(§3) A colorimetric type of assay, using sulforhodamine B (SRB) reaction has been adapted for a quantitative measurement of cell growth and viability (following the technique described by Skehan P et al. J. Natl. Cancer Inst. 1990, 82, 1107-1112).
(§4) This form of assay employs SBS-standard 96-well cell culture microplates (Faircloth et al. Methods in cell science, 1988, 11(4), 201-205; Mosmann et al, Journal of. Immunological. Methods, 1983, 65(1-2), 55-63). All the cell lines used in this study, derived from different types of human cancer, were obtained from the American Type Culture Collection (ATCC).
(§5) Cells were maintained in Dulbecco's Modified Eagle Medium (DMEM) supplemented with 10% Fetal Bovine Serum (FBS), 2 mM L-glutamine, 100 U/mL penicillin and 100 U/mL streptomycin at 37° C., 5% CO2 and 98% humidity. For the experiments, cells were harvested from subconfluent cultures using trypsinization and resuspended in fresh medium before counting and plating.
(§6) Cells were seeded in 96 well microtiter plates at 5×10^3 cells per well in aliquots of 150 μL, and allowed to attach to the plate surface for 18 hours in drug free medium. One control (untreated) plate of each cell line was fixed (as described below) and used for time zero reference value. Afterwards, test samples were added to the cultures in ten serial dilutions, in aliquots of 50 μL, ranging from 10 to 0.00262 μg/mL. After 48 hours exposure, the antitumor effect was estimated by the SRB method: Briefly, cells were washed twice with PBS, fixed for 15 min in 1% glutaraldehyde solution, rinsed twice in PBS, and stained in 0.4% SRB solution for 30 min at room temperature. Cells were then rinsed several times with 1% acetic acid solution and air-dried. SRB was then extracted in 10 mM trizma base solution and the absorbance measured in an automated spectrophotometric plate reader at 490 nm. Cell survival was expressed as percentage of control cell growth. The final effect of the sample being tested was estimated by applying the NCI algorithm (Boyd M R and Paull K D. Drug Dev. Res. 1995, 34, 91-104).
(§7) Using the mean±SD of triplicate cultures, a dose-response curve was automatically generated using nonlinear regression analysis. Three reference parameters were calculated (NCI algorithm) by automatic interpolation: GI50=concentration that produces 50% growth inhibition; TGI=total growth inhibition (cytostatic effect) and LC50=concentration that produces 50% net cell killing (cytotoxic effect).

Assay [3] deals with MDA-MB-231. Briefly: cells. Conditions: Homo sapiens, MDA-MB-231, 48 h; for CC50: read-out: LC50; for IC (TGI): read-out: TGI. Format: cell-based.
Source text: as §1, §2, §3, §4, §5, §6, §7

In assay [4] the test system is HT29. Briefly: cells. Format: cell-based. Conditions: Homo sapiens, HT-29, 48 h; for CC50: read-out: LC50; for IC (TGI): read-out: TGI.
Source text: as §1, §2, §3, §4, §5, §6, §7

Assay [5] deals with HeLa cells. Briefly: Anti-mitotic assay (anti-MPM2 immunoassay). Format: cell-based. Conditions: Homo sapiens, 18 hours incubation, read-out: IC50 (50% mitotic arrest). The method, then: Anti-Mitotic Assay Protocol
The mitotic ratio of the cell cultures (percentage of cells arrested in mitosis) was estimated using a specific 96-well microplate immunoassay that quantitatively detects a specific mitotic marker. HeLa cells (h-cervix carcinoma, ATCC# CCL-2) were incubated for 18 hours in the presence or absence of the samples being tested. Afterwards, cells were washed with PBS and lysed on ice in 75 μL of freshly prepared lysis buffer (1 mM EGTA (pH 7.5), 0.5 mM PMSF and 1 mM NaVO3) for 30 min. An aliquot of the cell extract (60 μL) was transferred to a high-binding surface ELISA plate and dried in a speed-vac for 2 h at room temperature. Plates were then blocked in 100 μL. PBS-1% BSA for 30 min at 30° C. and sequentially incubated with anti-MPM2 primary mouse monoclonal antibody (Upstate Biotechnology, cat #05-368) for 18 h at 4° C. and appropriate peroxidase-conjugated secondary antibody for 1 h at 30° C. After intensive washing in 0.02% Tween-20, peroxidase reaction were performed using 30 μL of TMB (3,3′,5,5′-tetramethyl-benzidine) for 30 min at 30° C. Reaction was stopped by adding 30 μL of a 4% H2SO4 solution. Assay was quantified by measuring the O.D. at 450 nm in a microplate spectrophotometer. Results were expressed as IC50, sample concentration that produces 50% mitotic arrest in treated cell cultures, as compared to control, untreated cultures.

Assay [6] deals with Saccharomyces cerevisiae. Conditions: fungus Saccharomyces cerevisiae; cited from earlier work.
Assay [7] relates to L929 mouse fibroblast cell culture. Conditions: cited from earlier work.

With `C=C/C=C\[C@H](C)[C@H](OC(N)=O)[C@@H](C)[C@H](O)[C@@H](C)C/C(C)=C\[C@H](C)[C@@H](O)[C@@H](C)/C=C\[C@@H](O)CC1OC(=O)[C@H](C)[C@@H](O)[C@H]1C` (single isomer, unassigned; (+)) [(+)-discodermolide], the half-maximal inhibitory concentration (IC50) in assay [1] is 2.4 nM.

As to `COC1=CC[C@@H]([C@@H](C)/C=C(C)/C=C\C=C/C(=O)N[C@H](C(=O)N/C=C\C[C@H](C/C=C(\C)Cl)OC(N)=O)C(C)(C)C)OC1=O` [Compound 1], in assay [2], it took 0.379 nM to inhibit growth by half (GI50), the CC50 is above 165 nM and the IC (TGI) is 1.09 nM. In assay [3], growth was halved (GI50) at 0.445 nM, the CC50 was 2.8 nM and the IC (TGI) worked out at 0.99 nM. Also, in assay [4], it took 0.462 nM to inhibit growth by half (GI50), the CC50 turned out to be 0.99 nM and the IC (TGI) amounted to 0.61 nM. Besides, in assay [5], the IC50 worked out at 26.4 nM.

As to `COC1=CCC(C(C)/C=C(C)/C=C/C=C\C(=O)NC(C(=O)N/C=C\CC(C/C=C(\C)Cl)OC(N)=O)C(C)(C)C)OC1=O` (stereo not drawn) [Compound 2], in assay [2], it took 8.63 nM to inhibit growth by half (GI50), the CC50 was at least 16500 nM and the IC (TGI) is 23.7 nM. Further, in assay [3], the 50% growth inhibitory concentration (GI50) was 9.85 nM, the CC50 is 72 nM and the IC (TGI) turned out to be 21.5 nM. In addition, in assay [4], the GI50 is 8.31 nM, the CC50 turned out to be 17.2 nM and the IC (TGI) was found to be 10.9 nM. The concentration for half-maximal inhibition (IC50) in assay [5] came to 26.4 nM.

Turning to `COC1=CC[C@@H]([C@@H](C)/C=C(C)/C=C\C=C/C(=O)N[C@H](C(=O)N/C=C\C[C@@H](C/C=C(\C)Cl)OC(N)=O)C(C)(C)C)OC1=O` [Compound (21S)-1], in assay [2], the GI50 came out at 2.14 nM, the CC50 is above 1650 nM and the IC (TGI) worked out at 42.9 nM. In assay [3], growth was halved (GI50) at 1.65 nM, the CC50 came to 34.6 nM and the IC (TGI) was 5.77 nM. Besides, in assay [4], the GI50 worked out at 0.891 nM, the CC50 worked out at 23.1 nM and the IC (TGI) was 1.63 nM.

In the case of `COC(=O)CNC(=O)CCC/C=C\NC(=O)/C=C(C)/C=C/[C@H](C)[C@H](OC)[C@H](C)[C@H](/C=C/c1ccccc1)OC` [crocacin D], in assay [6], the minimum inhibitory concentration (MIC) is 0.0014 µg/mL (≈ 0.00259 µM). Further, the “IC50 (toxicity)” value in assay [7] was 0.06 µg/mL (≈ 0.111 µM).

In the case of `CC(=O)O[C@H]1C(=O)[C@@]2(C)[C@H]([C@H](OC(=O)c3ccccc3)[C@]3(O)C[C@H](OC(=O)[C@H](O)[C@@H](NC(=O)c4ccccc4)c4ccccc4)C(C)=C1C3(C)C)[C@]1(OC(C)=O)CO[C@@H]1C[C@@H]2O` [paclitaxel], the half-inhibitory concentration (IC50) in assay [1] was 2.1 nM.
